Data published in patent US20160137714A1 (Thrasos Innovation, Inc., priority 2014, published 2016).
Positions of bridges follow the written chain, without caps; N, C: chain ends. Residues, ends and D or L forms follow the SMILES beside them.

Test: Ex-vivo plasma stability
Type: in vitro ADME, mouse or rat
Details: fresh plasma 37° C., 1 μM

remaining at 1 h (60 min, read-out: Percent remaining 60 min): 3.4%
remaining at 2 h (120 min, read-out: Percent remaining 120 min): 2.3%
Structure (SMILES): CC(C)C[C@@H]1NC(=O)[C@H](C(C)C)NC(=O)[C@H](CC(N)=O)NC(=O)[C@H](CO)NC(=O)[C@H](CO)NC(=O)[C@H](CC(=O)O)NC(=O)[C@H](CC(=O)O)NC(=O)[C@H](Cc2ccccc2)NC(=O)[C@H](Cc2ccc(O)cc2)NC(=O)[C@@H](N)CSSC[C@@H](C(=O)N[C@@H](CCCCN)C(=O)N[C@@H](CCCCN)C(=O)N[C@@H](Cc2ccc(O)cc2)C(=O)N[C@@H](CCCNC(=N)N)C(=O)N[C@@H](CO)C(=O)O)NC1=O [THR-123, Cys-Tyr-Phe-Asp-Asp-Ser-Ser-Asn-Val-Leu-Cys-Lys-Lys-Tyr-Arg-Ser] (H-CYFDDSSNVLCKKYRS-OH; disulfide 1-11)
